# PMC10749895, “ppGpp accumulation reduces the expression of the global nitrogen homeostasis-modulating NtcA regulon by affecting 2-oxoglutarate levels” (Communications Biology, 2023)
# Key:
# [1] = biological target: T1, Synpcc7942_0903 (aconitase, ACN) (Synechococcus elongatus, UniProt Q31PT6); test: aconitase activity, cis-aconitate formation at […] nm; assay type: biochemical; conditions: 1 mM citrate, 100 mM potassium phosphate pH 8.0, 30 °C, anaerobic
# T1 construct: full-length gene in pET28a (NdeI/HindIII), N-terminal His6-tag, E. coli BL21-CodonPlus(DE3)-RIL, Ni column, purified anaerobically
# [2] = biological target: T1, Synpcc7942_0903 (aconitase, ACN); test: as above; assay type: biochemical; conditions: 0.25-10 µM ppGpp, 10 min preincubation; 1 mM citrate, 100 mM potassium phosphate pH 8.0, 30 °C, anaerobic; inhibitor
Structure (SMILES),"aconitase activity, cis-aconitate formation at 240 nm [1]",relative activity (% of activity without ppGpp) at maximum inhibition [2]
O=C(O)CC(O)(CC(=O)O)C(=O)O [citrate],monitoring the formation of cis-aconitate in a reaction mixture containing,
Nc1nc2c(ncn2[C@@H]2O[C@H](COP(=O)(O)OP(=O)(O)O)[C@@H](OP(=O)(O)OP(=O)(O)O)[C@H]2O)c(=O)[nH]1 [ppGpp],,~ 63
